The test system of test [1] is panel of human tumour cell lines. Description: Monolayer proliferation assay, mean IC70 across the cell line panel. Type of test: cell-based. The note with it: geometric mean of all replicates across the 6 cell lines; concentration inhibiting cell growth by 70%. As to the method:
In vitro evaluation of compounds for anticancer activity in a panel of human tumour cell lines in a monolayer proliferation assay were carried out at the Oncotest Testing Facility, Institute for Experimental Oncology, Oncotest GmbH, Freiburg.
The Oncotest cell lines were established from human tumor xenografts as described by Roth et al., (1999). The origin of the donor xenografts was described by Fiebig at al., (1999). Other cell lines were either obtained from the NCl (DU145, MCF-7) or purchased from DSMZ, Braunschweig, Germany.
All cell lines, unless otherwise specified, were grown at 37° C. in a humidified atmosphere (95% air, 5% CO2) in a ‘ready-mix’ medium containing RPMI 1640 medium, 10% fetal calf serum, and 0.1 mg/mL gentamicin (PAA, Cölbe, Germany). […]
Briefly, cells were harvested from exponential phase cultures by trypsinization, counted and plated in 96 well flat-bottomed microtitre plates at a cell density dependent on the cell line (5-10.000 viable cells/well). […] After thawing the plates, fluorescence was measured using the Cytofluor 4000 microplate reader (excitation 530 nm, emission 620 nm), giving a direct relationship to the total number of viable cells. Growth inhibition may be expressed as treated/control×100 (% T/C). […]

Test [2] has as its target Hsp90 (Homo sapiens, UniProt P07900). Conditions: cited from earlier work.

Consider `CO[C@H]1[C@@H](OC)C[C@H](C)[C@@H](OC)C2=CC(=O)C=C(NC(=O)/C(C)=C/C=C\[C@H](C)[C@@H](OC(N)=O)/C(C)=C/[C@@H]1C)C2=O` [macbecin], for which the “average IC70 value across the cell-line panel” value in test [1] was 0.21 µg/mL.

Regarding `CO[C@H]1C[C@H](C)Cc2cc(O)cc(c2)NC(=O)/C=C/CC[C@H](OC)[C@@H](OC(N)=O)/C(C)=C/[C@H](C)[C@H]1O` [KOSN1559], in test [2] (relative to 17-AAG), the “binding affinity to Hsp90, fold greater than 17-AAG” value was 8 fold. Besides, in test [2] (relative to geldanamycin), the “binding affinity to Hsp90, fold greater than geldanamycin” value is given as 4 fold.

(Values after patent US20110160175A1, “18,21-Didesoxymacbecin Derivatives for the Treatment of Cancer” (priority 2006, published 2011).)
